Assay results from patent US6492328B2, “Novispirins: antimicrobial peptides” (priority 2000, dated 2002).
Read-outs that look alike come from different tables or passages of the source. Where no end group is shown, it is not given here.

Experiments:
[1] = system: C. trachomatis serovar L2; assay: McCoy cell shell vial assay, inclusion-forming units; type: cell-based, Chlamydia trachomatis; design: dose or concentration left out as unconfirmed
Description: (§1) C. trachomatis serovar L2 causes invasive LGV, whereas serovars D and E represent typical genital strains. The effect of G-10 on Chlamydia trachomatis serovars (L2, D and E) was determined using standard and modified McCoy cell shell vial assays and varying concentrations of peptide. In the standard assay, the Chlamydia/peptide mixture was pre-incubated for 2 hr., then removed from the host cell monolayer before the 48-hr. incubation. In the modified assay, the pre-incubation mixture was left on the monolayer for the 48 hr. incubation. In a third assay, G-10 and Chlamydia were mixed and infected to cell monolayers without pre-incubation, and examined after 48 hr. Inclusion-forming units (IFUs) were scored to measure the peptide's inhibitory effect.

[2] = system: C. trachomatis serovar D; assay: as above; type: cell-based, Chlamydia trachomatis; design: dose or concentration left out as unconfirmed
Description: as §1

[3] = system: human red blood cells; type: cell-based
Description: Hemolytic Activity: This was tested by incubating various concentrations of peptide with a suspension (2.8% v/v) of washed human, murine, sheep or bovine red cells in PBS. After 30 min at 37C, the tubes were centrifuged and the percentage of total hemoglobin released to the supernatant was measured.
Similar results were obtained with murine red blood cells. In contrast, none of these peptides were appreciably hemolytic towards sheep or bovine red blood cells.

[4] = system: E. coli ML 35P; type: cell-based, Escherichia coli; settings: mean ± SEM, n = 3
Description: Antimicrobial activity. Several different methods were used to examine the antimicrobial properties of novispirins, including: a) two-stage radial diffusion assays; b) colony counting assays; and c) standard microbroth dilution assays.
Antimicrobial activity was tested in media with low, normal or high salinity. In radial diffusion assays, this was accomplished by using a low salt “basic medium” containing 0.3 mg of trypticase soy broth powder/ml of 10 mM sodium phosphate buffer, pH 7.4. Media with “normal” or “high” salinity were prepared by supplementing the basic medium with 100 mM NaCl to obtain media with normal salinity, or with 175-200 mM NaCl to obtain high salt media. Retention of activity against P. aeruginosa in high salt media is important because airway fluids from cystic fibrosis patients are reported to show hypersalinity, and other sites—including skin surfaces surfaces and the urinary bladder—may have locally high salt concentrations.
The relative activities of ovispirin and the novispirins against two organisms, E. coli and a multi-resistant strain of P. aeruginosa, are shown in FIG. 1. The MICs were obtained by radial diffusion assays performed under low, normal, and high salt conditions (which are denoted along the X-axis as 0, 100 and 200 mM NaCl, respectively).
Table 1 compares the activity of novispirins against these Gram-negative bacteria with its activity against Listeria monocytogenes, Staphylococcus aureus and C. albicans. […] Note that novispirins show activity against these Gram-positive bacteria when tested in physiological (100 mM NaCl) salt concentrations, and also that Novispirin G10 is quite active against C. albicans. Although neither ovispirin nor novispirins retained activity against C. albicans or the Gram positives under very high salt conditions (200 mM NaCl), they remained active against the Gram-negatives under these conditions. Consequently, even if the airways' NaCl concentrations are exceptionally high in CF patients, this factor will not impair the ability of ovispirin or novispirins to kill P. aeruginosa.

[5] = system: S. maltophilia 42CK; assay: Novispirins vs S. maltophilia (Table 5); type: cell-based, Stenotrophomonas maltophilia; design: unit not given here; settings: strain 42CK
Description: (§2) Microorganisms used in this study included 13 different Pseudomonas aeruginosa strains. The AML-654 and LZ-1 strains are recent clinical isolates from the UCLA Clinical Microbiology laboratory. Nine strains (5 mucoid, 4 nonmucoid) were recent CF isolates provided by Dr. Lisa Saiman. All of the P. aeruginosa strains except PAO-1 strain were resistant to multiple conventional antibiotics, and all 9 CF isolates were resistant to 250 μg/ml of tobramycin. We have also tested 5 strains each of Stenotrophomonas maltophilia and Burkholderia cepacia from CF patients (also provided by Dr. Lisa Saiman), two strains of Escherichia coli (ML-35p and DH-5a), and single strains of Staphylococcus aureus[MRSA (methicillin-resistant S. aureus)] and C. albicans.

[6] = system: S. maltophilia 36CN; assay: Novispirins vs S. maltophilia (Table 5); type: cell-based, Stenotrophomonas maltophilia; design: unit not given here; settings: strain 36CN
Description: as §2

[7] = system: S. maltophilia 18CP; assay: Novispirins vs S. maltophilia (Table 5); type: cell-based, Stenotrophomonas maltophilia; design: unit not given here; settings: strain 18CP
Description: as §2

[8] = system: S. maltophilia 51Cl; assay: Novispirins vs S. maltophilia (Table 5); type: cell-based, Stenotrophomonas maltophilia; design: unit not given here; settings: strain 51Cl
Description: as §2

[9] = system: S. maltophilia 47CG; assay: Novispirins vs S. maltophilia (Table 5); type: cell-based, Stenotrophomonas maltophilia; design: unit not given here; settings: strain 47CG
Description: as §2

[10] = system: MRC-5 human lung fibroblasts; type: cell-based
Description: FIG. 5 compares the cytotoxicity of these peptides for MRC-5 human lung fibroblasts.

[11] = system: C. trachomatis serovar E; assay: McCoy cell shell vial assay, inclusion-forming units; type: cell-based, Chlamydia trachomatis; settings: 100 μg/ml, pre-incubation assays
Description: as §1

[12] = Acute toxicity studies in mice, intravenous; type: in vivo
Description: In vivo toxicity. Acute toxicity studies were performed in mice. 3/3 mice survived an intravenous dose of 10 mg novispirin G10/kg body weight, and 1/3 survived a dose of 20 mg/kg.

[13] = system: S. aureus; assay: Two stage radial diffusion assay with 10 mM HEPES, G10 variants (Table 8); type: cell-based; settings: mean ± SEM, n = 3, in µg/mL
Description: (§3) Amidation (—NH2) of the carboxy terminus in some of the novispirin G10 variants was designed to increase overall positive charge. The sequences of these peptides and their net charge is shown below in Table 7. The fractional (and pH dependent) charge on histidine12 was ignored in this calculation.
(§4) In Table 8, MIC signifies minimal inhibitory concentration, as determined by two stage radial diffusion assays. […] Shaded boxes show results that represent a significant improvement of activity (p<0.01 by t-test), relative to novispirin G10. […] None of the above G10 novispirin derivatives caused any hemolysis of human red blood cells, even when tested at 80 μg/ml. It is likely that other cationic amino acids (e.g., lysine, ornithine, etc) could also be used in position 12 to achieve better activity in the presence of calcium and magnesium ions.

[14] = system: P. aeruginosa; assay: as above; type: cell-based; settings: mean ± SEM, n = 3, in µg/mL
Description: as §3, §4

[15] = system: K. pneumoniae; assay: as above; type: cell-based; settings: mean ± SEM, n = 3, in µg/mL
Description: as §3, §4

[16] = system: E. coli; assay: as above; type: cell-based; settings: mean ± SEM, n = 3, in µg/mL
Description: as §3, §4

[17] = system: E. coli ML 35P; settings: ML 35P
Description: Effect of serum. […] Because serum can be present in an inflammatory focus or exudate, the ability to function in the presence of serum would be a desirable property.
In these experiments, the underlay gel contained 60% RPMI-1640, ±2.5 or 20% normal human serum (NHS). The remainder of the solution was phosphate-buffered saline

[18] = Very high salinity (+200 mM NaCl)

Substance: KNLRRIIRKGIHIIKKYG-OH [G10 Novispirin, K N L R R I I R K G I H I I K K Y G]
- serovar L2 IFUs reduced [1]: 92.7-99.1%
- serovar D IFUs reduced [2]: 99.4-100%
- hemolytic activity for human red blood cells [3]: nonhemolytic
- MIC ([4]; Low Salt (+0 mM NaCl)): 0.1 ± 0.0 µg/mL
- MIC ([4]; Normal salinity (+100 mM NaCl)): 0.1 ± 0.0 µg/mL
- MIC [4, 18]: 1.8 ± 0.8 µg/mL
- activity vs S. maltophilia ([5]; +100 mM NaCl): 0.67
- activity vs S. maltophilia ([5]; +175 mM NaCl): 10.0
- activity vs S. maltophilia ([5]; LOW SALT CONDITIONS): 0.43
- activity vs S. maltophilia ([6]; +100 mM NaCl): 0.29
- activity vs S. maltophilia ([6]; +175 mM NaCl): 0.36
- activity vs S. maltophilia ([6]; LOW SALT CONDITIONS): 0.15
- activity vs S. maltophilia ([7]; +100 mM NaCl): 0.70
- activity vs S. maltophilia ([7]; +175 mM NaCl): 1.30
- activity vs S. maltophilia ([7]; LOW SALT CONDITIONS): 0.40
- activity vs S. maltophilia ([8]; +100 mM NaCl): 3.57
- activity vs S. maltophilia ([8]; +175 mM NaCl): 8.18
- activity vs S. maltophilia ([8]; LOW SALT CONDITIONS): 0.45
- activity vs S. maltophilia ([9]; +100 mM NaCl): 0.68
- activity vs S. maltophilia ([9]; +175 mM NaCl): 0.63
- activity vs S. maltophilia ([9]; LOW SALT CONDITIONS): 0.08
- cytotoxicity for MRC-5 human lung fibroblasts [10]: virtually devoid of cytotoxicity
- inhibition of C. trachomatis serovar E [11]: completely inhibited
- peak level ([12]; 10 mg/kg dose, if blood volume of a mouse is 5% of its mass): approximately 200 micrograms/ml
- mice survived ([12]; intravenous dose of 10 mg/kg body weight): 3/3
- mice survived ([12]; intravenous dose of 20 mg/kg): 1/3
- MIC ([13]; +1 mM Ca): 99.0 ± 5.7
- MIC ([13]; +1 mM Mg): >79
- MIC ([13]; No Ca/Mg): 22.7 ± 2.1
- MIC ([14]; +1 mM Ca): >250
- MIC ([14]; +1 mM Mg): >250
- MIC ([14]; No Ca/Mg): 0.17 ± 0.04
- MIC ([15]; +1 mM Ca): >250
- MIC ([15]; +1 mM Mg): >250
- MIC ([15]; No Ca/Mg): 0.17 ± 0.03
- MIC ([16]; +1 mM Ca): 21.2 ± 0.36
- MIC ([16]; +1 mM Mg): 20.3 ± 0.1
- MIC ([16]; No Ca/Mg): 0.09 ± 0.02

Substance: KNLRRIIRKIIHIIKKYG [Ovispirin, K N L R R I I R K I I H I I K K Y G]
- hemolytic activity for human red blood cells [3]: about as hemolytic for human red blood cells as protegrin PG-1
- MIC ([4]; Low Salt (+0 mM NaCl)): 0.7 ± 0.0 µg/mL
- MIC ([4]; Normal salinity (+100 mM NaCl)): 0.7 ± 0.1 µg/mL
- MIC [4, 18]: 1.5 ± 0.6 µg/mL
- MIC [17]: 1.7 µg/mL

Substance: KNLRRIIRKTIHIIKKYG [T10 Novispirin, K N L R R I I R K T I H I I K K Y G]
- MIC ([4]; Low Salt (+0 mM NaCl)): 0.5 ± 0.2 µg/mL
- MIC ([4]; Normal salinity (+100 mM NaCl)): 0.3 ± 0.2 µg/mL
- MIC [4, 18]: 2.7 ± 1.1 µg/mL
- cytotoxicity for MRC-5 human lung fibroblasts [10]: virtually devoid of cytotoxicity
